Assay results: patent US6893834B2, “Assay for kinases and phosphatases” (Promega Corporation, priority 2000, dated 2005)

Columns and labels:
PI-5K = test: Reaction specificity of PI-5K toward lipid substrates; type: biochemical; details: purified PI-5K 125 ng/ml, 15 min, room temperature; FIG. 9
Procedure: FIG. 9: Reaction specificity toward lipid substrates. Reactions according to the subject invention were performed with purified PI4P-5K (250 ng/ml) for 45 min at room temperature using 1 μg of different lipid substrates: PI3,4P (lane 1); PI3,5P2 (lane 2) and PI4,5P2 (lane 3). In addition to lipid substrates, all samples contained 10 μg of PS loaded on the membrane.
Lipids, 10 μg of PI4,5P2+20 μg of PS, were dissolved in chloroform:methanol (2:1) and loaded onto “SAM2”-brand membranes for PI-3K activity measurements. Likewise, 10 μg of PI4P was loaded onto “SAM2”-brand membranes for PI4P-5K activity measurements. The membranes were air dried and a reaction mixture containing 50 mM HEPES/NaOH, pH7.5, 100 mM NaCl, 10 mM MgCl2, 20 ng partially-purified PI-3K or 10 ng of purified PI4P-5K, 50 μM ATP supplemented with 1 μCi of γ-^32P-ATP was added onto the membrane containing the immobilized lipids.
Following incubation at room temperature, the reactions were stopped with 7.5 M guanidine chloride and the membranes were washed with 2M NaCl, followed by 2 M NaCl/1% H3PO4. The washed membranes were dried and subjected to scintillation counting.
This Example illustrates the reaction specificity toward lipid substrates. Here, a reaction was performed with purified PI-5K (125 ng/ml) for 15 min at room temperature using different lipid substrates: PI3,4P (lane 1); PI3,5P (lane 2) and PI4,5P2 (Lane 3).

3T3 NIH cells = test: PI-3K activity associated with activated receptor in PDGF-stimulated 3T3 NIH cells; type: cell-based; details: PDGF 50 ng/ml, 5 min, 37° C.; reaction 60 min, PI4,5P2 (10 μg) + PS (20 μg); FIG. 3
Procedure: FIG. 3: Detection of PI-3K activity associated with activated receptor. 3T3NIH cells (5×10^7 cells) were treated without (lane 1) or with (lane 2) PDGF (50 ng/ml for 5 min at 37° C.) and PI-3K was co-immunoprecipitated using anti-phosphotyrosine specific antibodies. The PI-3K reactions were run for 60 min using PIP2 (10 μg)+PS (20 μg) as substrates.
In resting cells, PI-3K is located in the cytosol. However, upon cell stimulation, the enzyme is recruited to the plasma membrane where it is associated with particular receptors and is involved in further propagation of the signal. This example illustrates that the described method allows to measure PI-3K activity associated with activated receptor. 3T3 NIH cells (0.5×10^7 cells) were starved oveminght in serum-free medium. PDGF (50 ng/ml) was added to the starved cells and the induction was carried out for 5 min at 37° C. Following the PDGF induction, cells were washed once with PBS while on the plate, scraped into PBS, transferred to a centrifuge tube, pelleted by centrifugation. The cell pellet was lysed and activated receptor-PI-3K complex was iminunoprecipitated using anti-phosphotyrosine specific antibodies. The PI-3K reaction was run for 60 min using PI4,5P2 (10 μg) as substrate, immobilized on “SAM2”-brand membranes, together with 20 μg of carrier lipid (PS).

| Substance | substrate for PI-5K (phosphorylation, CPM) (PI-5K) | PI-3K activity co-immunoprecipitated with anti-phosphotyrosine antibodies (3T3 NIH cells) |
| --- | --- | --- |
| D-myo-phosphatidylinositol 3,5-bisphosphate [PI3,5P] | not substrates |  |
| D-myo-phosphatidylinositol 3,4-bisphosphate [PI3,4P] | suitable substrate |  |
| D-myo-phosphatidylinositol 4,5-bisphosphate [PI4,5P] | not substrates |  |
| platelet-derived growth factor [PDGF] |  | increase in PI-3K activity |
